Assay [1] has as its system 70S ribosomes displaying cognate (UUC) or near-cognate (CUC) codon in the A site. As to the kind of experiment: GTP hydrolysis by EF-Tu in ternary complex (initial codon selection), quench-flow. It counts as biochemical, E. coli. The text has this: (§1) To study the impact of viomycin on translational accuracy, we designed experiments to measure its effect on the kinetic efficiency ( kcat/KM ) of GTP hydrolysis by EF-Tu and peptide bond formation for both cognate and near-cognate codon-anticodon interactions. A reaction mixture containing varying concentrations of viomycin and Phe-tRNAGAAPhe in TC with EF-Tu·GTP was rapidly mixed in a quench-flow instrument with initiated 70S ribosomes displaying either cognate (UUC) or near-cognate (CUC) codons in the A site. For studying GTP hydrolysis, the TCs contained [^3H]GTP and the 70S ribosomes had non-radioactive fMet-tRNA^fMet in the P site, while for studying peptide bond formation the TCs contained non-radioactive GTP and the 70S ribosomes had f[^3H]Met-tRNA^fMet bound in the P site. The reactions were stopped at different times by addition of formic acid and the relative amounts of the reaction products were analyzed by ion-exchange chromatography ([^3H]GDP) or RP-HPLC (f[^3H]Met-Phe) with on-line radiation detection.
(§2) All experiments were performed at 37°C in HEPES-polymix buffer (95 mM KCl, 5 mM NH4Cl, 0.5 mM CaCl2, 8 mM putrescine, 1 mM spermidine, 5 mM Mg(OAc)2, 1 mM dithioerythritol and 5 mM HEPES pH 7.5). All reaction mixes contained 10 mM phosphoenolpyruvate (PEP), 1 µg/ml pyruvate kinase (PK) and 0.1 µg/ml myokinase (MK). His-tagged initiation factors IF1, IF2 and IF3, elongation factor Ts, and phenylalanine and leucine aminoacyl tRNA-synthetases were purified using nickel-affinity chromatography (HisTrap GE Healthcare). Wild-type elongation factor Tu was prepared as in [Ehrenberg et al. (1990)]. All protein concentrations were determined using the Bradford assay. Ribosomes (E. coli MRE600) and f[^3H]Met-tRNA^fMet were prepared according to [Antoun et al. (2004)]; ribosome concentration was determined spectrophotometrically. XR7 mRNAs with coding sequences AUG-UUC, AUG-CUC, AUG-UAC and AUG-UUA were prepared as in [Borg and Ehrenberg (2015)], see theGV Appendix I for full mRNA sequences. tRNA^Phe was prepared as in [Holm et al. (2016)]. [^3H]Met and [^3H]GTP were from Perkin-Elmer, viomycin was from USP, all other chemicals were from either Merck or Sigma-Aldrich.
Two mixtures were prepared. The ribosome mixture contained 70S ribosomes (1.0–2.0 µM), IF1, IF2 and IF3 (2 µM each), fMet-tRNA^fMet(1.5–3.0 µM), mRNA (3 µM), GTP (1 mM) and ATP (1 mM). The TC mixture contained EF-Tu (0.3–0.6 µM), phenylalanine (200 µM), PheRS (0.5 µM), tRNA^Phe (2 µM), viomycin (0–2000 µM), [^3H]GTP (0.3–0.6 µM) and ATP (2 mM). After 15 min incubation at 37°C, equal volumes of the two mixes were rapidly mixed and the reaction quenched at different time points with formic acid (17% final concentration) using a quench-flow instrument (RQF-3 KinTek corp.). After quenching, the samples were centrifuged at 20,800 g. The supernatant, containing the [^3H]GTP and [^3H]GDP was analyzed by anion exchange chromatography with on-line scintillation counting (β-RAM model 4 IN/US systems). A Mono-Q GL column (GE Healthcare) was used and the mobile phase was a multistep gradient of 0–2 M NaCl in 20 mM Tris (pH 7.5).
Reaction rates were estimated by fitting of single exponential functions to the experimental time courses except for the GTP hydrolysis reactions without viomycin on near-cognate codons which were analyzed as in [Johansson et al. (2012)]. kcat/KM values were estimated by fitting of the Michaelis-Menten equation to plots of reaction rates versus concentration. […]

The next assay relates to tRNA selection. More on the design: method as in Marrero et al., 1980. The note with it: ref Marrero et al., 1980; cited from earlier work.
Assay [2] concerns peptidyl-tRNA in the ribosomal A site. The note with it: ref Holm et al., 2016; Peske et al., 2004; cited from earlier work.
The subject of assay [3] is 70S ribosomes displaying cognate UUC or near-cognate codons CUC, AUC, UAC or UUA in the A site. Briefly: f[^3H]Met-Phe dipeptide formation, quench-flow. The format is biochemical, E. coli.
Source text: as §1
The model presented above predicts that viomycin sensitivity ( KInc ) for any codon·anticodon pair depends on the accuracy of initial codon selection as defined by the product of the near-cognate back reaction rate constants q3nc and q4nc (Equations 4 and 5) in the absence as well as presence of viomycin. […] To test this prediction, we measured how the kcat/KM of dipeptide formation varied with viomycin concentration for tRNAGAAPhe reading three additional near-cognate codons (Figure 4A); AUC, UAC or UUA (the underlined base differs from the cognate codon UUC). We quantified the viomycin sensitivity of each codon by estimating its KI value by fitting of Equation 4 to plots of kcat/KM versus viomycin concentration (Figure 4B). We also estimated the accuracies of initial selection by measuring kcat/KM for GTP hydrolysis with the three codons in the absence of viomycin. Both sets of experiments were carried out exactly as described above.
as §2
Two mixtures were prepared. The ribosome mixture contained 70S ribosomes (0.5 µM), IF1, IF2 and IF3 (1 µM each), f[^3H]Met-tRNA^fMet (1 µM), mRNA (2 µM), GTP (1 mM) and ATP (1 mM). The TC mixture contained EF-Tu (1–10 µM), EF-Ts (1 µM), phenylalanine (200 µM), PheRS (0.5 µM), tRNA^Phe (12 µM), viomycin (0–2000 µM), GTP (1 mM) and ATP (1 mM). After 15 min incubation at 37°C, equal volumes of the two mixes were rapidly mixed and the reaction quenched at different time points with formic acid (17% final concentration) using a quench-flow instrument (RQF-3 KinTek corp.). After quenching, the samples were centrifuged at 20,800 g and the supernatant discarded. The pellet was dissolved in 165 µl 0.5 M KOH to cleave the peptides from the tRNA. […]

Setting [4] is: CUC vs UUC, 1 mM viomycin vs absence of viomycin.

Read-outs that look alike come from different tables or passages of the source.

For the substance viomycin, the “reduction in the accuracy of initial codon selection” value in assay [1] (setting [4]) turned out to be 170 fold. The “kcat/KM of cognate GTP hydrolysis (average over 0 to 1 mM viomycin)” value in assay [1] (cognate UUC codon, Phe-tRNA^Phe TC, viomycin 0 to 1 mM, HEPES-polymix pH 7.5, 37°C, error SEM) was 4.1e+07 ± 600000 M⁻¹ s⁻¹. In addition, the “effect of viomycin on kcat/KM of cognate GTP hydrolysis” value in assay [1] (cognate UUC codon, viomycin 0 to 1 mM, 37°C) is listed as “did not change with increasing viomycin concentration”. For the same substance, in assay [1] (near-cognate CUC codon, 1 mM viomycin (0.053 ± 0.005 in the absence of viomycin), HEPES-polymix pH 7.5, 37°C, error SEM), the “kcat/KM of near-cognate GTP hydrolysis” value was found to be 9.2e+06 ± 700000 M⁻¹ s⁻¹. The Ki in assay [1] (tRNA^Phe(GAA) reading near-cognate codon CUC, fit of Equation 4 (Figure 1B), 37°C, read-out: KI (viomycin concentration at which accuracy has decreased to two), from GTP hydrolysis) is 3.1 ± 0.2 mM; in assay [3] (tRNA^Phe(GAA) reading near-cognate codon AUC (first position mismatch), fit of Equation 4, accuracy of initial selection 2400 ± 120 without viomycin, read-out: KI from dipeptide formation, AUC) it was 7 ± 0.3 mM; in assay [3] (tRNA^Phe(GAA) reading near-cognate codon CUC, fit of Equation 4 (Figure 1D), 37°C, read-out: KI (viomycin concentration at which accuracy has decreased to two), from dipeptide formation, CUC), 3.3 ± 0.1 mM; in assay [3] (tRNA^Phe(GAA) reading near-cognate codon UAC (second position mismatch), fit of Equation 4, accuracy of initial selection 6400 ± 670 without viomycin, read-out: KI from dipeptide formation, UAC), 29 ± 2.7 mM; in assay [3] (tRNA^Phe(GAA) reading near-cognate codon UUA (third position mismatch), fit of Equation 4, accuracy of initial selection 580 ± 47 without viomycin, read-out: KI from dipeptide formation, UUA) it was 3.25 ± 0.2 mM. The “effect on fidelity of tRNA selection” value in the assay with tRNA selection is on record as “impairs the fidelity of tRNA selection”. In assay [2], the “stabilization of peptidyl-tRNA in the ribosomal A site” value was “strongly stabilize peptidyl-tRNA in the ribosomal A site”. In assay [3] (CUC vs UUC, 1 mM viomycin (83,500 ± 8000 without viomycin)), the total accuracy amounted to 4.0 ± 0.3. Besides, the “reduction in total accuracy” value in assay [3] (setting [4]) is 21,000 fold. Further, the “correlation of accuracy of initial selection with viomycin KI” value in assay [3] (codons CUC, AUC, UAC, UUA (Figure 4C)) is on record as “clear correlation between the two”. Besides, in assay [3] (cognate UUC codon, 37°C), the “effect of viomycin on kcat/KM of cognate dipeptide formation” value is recorded as “did not change with the addition of viomycin”. Besides, the “kcat/KM of cognate dipeptide formation (average over viomycin concentrations)” value in assay [3] (cognate UUC codon, HEPES-polymix pH 7.5, 37°C, error SEM) was 3.83e+07 ± 700000 M⁻¹ s⁻¹. Besides, the “kcat/KM of near-cognate dipeptide formation” value in assay [3] (near-cognate CUC codon, 1 mM viomycin (0.0005 ± 0.00004 in the absence of viomycin), HEPES-polymix pH 7.5, 37°C, error SEM) amounted to 9.4e+06 ± 800000 M⁻¹ s⁻¹. For the same substance, the “kcat/KM of near-cognate GTP hydrolysis compared with dipeptide formation” value in assay [3] (near-cognate CUC codon, all tested viomycin concentrations) is recorded as “virtually identical”. Besides, the “viomycin concentration required to double the rate at which tRNA^Phe reads the codon CUC” value in assay [3] (near-cognate CUC, from in vitro experiments) was determined as 80 ± 8 nM. The “proofreading selection by viomycin-bound ribosomes” value in assay [3] (near-cognate, proofreading accuracy 115 ± 15 in the absence of viomycin) is reported as “incapable of performing proofreading selection”.
